Test results taken from ChEMBL document CHEMBL5244202, “Structural evolution of toll-like receptor 7/8 agonists from imidazoquinolines to imidazoles” (RSC Med Chem, 2021).
pEC50: −log10 of the molar value.

Assays:
[1] = biological target: T1, Toll-like receptor 8 (Homo sapiens, UniProt Q9NR97); assay: Agonist activity at human TLR8 in HEK-Blue hTLR8 cells assessed as activation of NFkappaB by SEAP reporter gene based spectrophotometry assay; format: cell-based
T1 sequence (Q9NR97 whole entry): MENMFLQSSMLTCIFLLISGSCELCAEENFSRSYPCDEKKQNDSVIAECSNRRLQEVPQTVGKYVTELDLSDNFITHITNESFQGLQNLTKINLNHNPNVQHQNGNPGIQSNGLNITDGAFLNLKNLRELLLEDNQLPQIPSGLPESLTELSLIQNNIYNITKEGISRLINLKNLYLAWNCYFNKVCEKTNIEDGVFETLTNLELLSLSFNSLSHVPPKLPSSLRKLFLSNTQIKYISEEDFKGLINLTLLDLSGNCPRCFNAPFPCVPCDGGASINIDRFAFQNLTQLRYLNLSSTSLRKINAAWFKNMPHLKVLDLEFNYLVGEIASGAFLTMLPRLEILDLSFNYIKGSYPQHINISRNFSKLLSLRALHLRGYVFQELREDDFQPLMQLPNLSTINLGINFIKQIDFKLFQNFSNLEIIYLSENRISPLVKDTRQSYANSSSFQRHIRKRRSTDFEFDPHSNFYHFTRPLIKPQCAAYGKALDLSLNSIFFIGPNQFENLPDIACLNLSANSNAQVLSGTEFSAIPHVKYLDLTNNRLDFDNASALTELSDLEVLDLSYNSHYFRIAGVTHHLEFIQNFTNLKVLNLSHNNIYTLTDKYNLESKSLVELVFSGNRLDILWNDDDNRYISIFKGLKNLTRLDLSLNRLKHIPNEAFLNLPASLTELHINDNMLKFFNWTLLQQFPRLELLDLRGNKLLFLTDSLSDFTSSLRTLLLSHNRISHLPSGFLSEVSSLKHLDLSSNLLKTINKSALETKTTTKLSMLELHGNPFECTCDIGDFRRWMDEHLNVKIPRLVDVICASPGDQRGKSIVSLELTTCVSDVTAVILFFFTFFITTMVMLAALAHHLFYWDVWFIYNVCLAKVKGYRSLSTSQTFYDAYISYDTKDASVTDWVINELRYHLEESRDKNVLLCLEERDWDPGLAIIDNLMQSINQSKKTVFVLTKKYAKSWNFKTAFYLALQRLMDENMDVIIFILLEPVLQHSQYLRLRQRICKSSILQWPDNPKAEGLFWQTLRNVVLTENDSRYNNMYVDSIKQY

[2] = biological target: T2, Toll-like receptor 7 (Homo sapiens, UniProt Q9NYK1); assay: Agonist activity at human TLR7 in HEK-Blue hTLR7 cells assessed as activation of NFkappaB by SEAP reporter gene based spectrophotometry assay; format: cell-based
T2 sequence (Q9NYK1 whole entry): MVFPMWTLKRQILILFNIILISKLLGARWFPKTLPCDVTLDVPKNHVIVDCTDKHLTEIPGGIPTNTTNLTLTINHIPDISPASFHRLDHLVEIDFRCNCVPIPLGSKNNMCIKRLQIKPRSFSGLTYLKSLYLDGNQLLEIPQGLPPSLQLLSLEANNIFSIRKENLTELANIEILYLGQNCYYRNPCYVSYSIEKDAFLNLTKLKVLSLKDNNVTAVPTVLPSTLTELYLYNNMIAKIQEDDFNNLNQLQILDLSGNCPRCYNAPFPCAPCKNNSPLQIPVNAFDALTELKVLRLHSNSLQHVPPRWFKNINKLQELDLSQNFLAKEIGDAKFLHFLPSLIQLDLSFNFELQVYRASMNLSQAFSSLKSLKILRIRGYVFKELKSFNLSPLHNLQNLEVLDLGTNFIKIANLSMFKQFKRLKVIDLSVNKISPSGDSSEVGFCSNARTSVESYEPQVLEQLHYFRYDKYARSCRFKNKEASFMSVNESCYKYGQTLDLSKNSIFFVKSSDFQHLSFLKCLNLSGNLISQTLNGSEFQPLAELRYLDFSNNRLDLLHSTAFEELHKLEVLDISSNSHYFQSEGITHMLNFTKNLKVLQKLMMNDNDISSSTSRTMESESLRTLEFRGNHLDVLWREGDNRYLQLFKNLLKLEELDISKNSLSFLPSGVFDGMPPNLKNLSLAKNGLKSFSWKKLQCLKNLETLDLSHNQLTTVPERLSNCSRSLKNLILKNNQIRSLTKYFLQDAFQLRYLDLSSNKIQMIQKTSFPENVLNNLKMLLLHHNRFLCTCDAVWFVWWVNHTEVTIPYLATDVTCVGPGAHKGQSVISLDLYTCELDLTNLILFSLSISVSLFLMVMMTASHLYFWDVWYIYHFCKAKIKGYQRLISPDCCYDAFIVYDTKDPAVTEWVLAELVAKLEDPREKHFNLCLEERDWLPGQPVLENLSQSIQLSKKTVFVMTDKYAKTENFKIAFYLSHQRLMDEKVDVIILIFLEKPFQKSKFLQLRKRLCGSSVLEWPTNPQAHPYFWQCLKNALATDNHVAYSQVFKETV

[3] = biological target: T1, Toll-like receptor 8; assay: Agonist activity at TLR8 (unknown origin)
[4] = biological target: T2, Toll-like receptor 7; assay: Agonist activity at TLR7 (unknown origin)
[5] = Induction of IFN production in C3H/HeJ mouse splenocytes incubated for 18 hrs; format: functional; conditions: Splenocyte, read-out: MEC
[6] = biological target: T1, Toll-like receptor 8; assay: Agonist activity at human TLR8 (27 to 287 residues) in HEK-Blue hTLR8 cells assessed as induction of NFkappaB by SEAP reporter gene based spectrophotometry assay; format: cell-based
[7] = biological target: T2, Toll-like receptor 7; assay: Agonist activity at human TLR7 transfected in HEK293 cells assessed as induction of SEAP production incubated overnight by SEAP reporter gene based assay; format: cell-based
[8] = biological target: T1, Toll-like receptor 8; assay: Agonist activity at human TLR8 transfected in HEK293 cells assessed as induction of SEAP production incubated overnight; format: cell-based
[9] = biological target: T2, Toll-like receptor 7; assay: Agonist activity at recombinant human TLR7 transfected in HEK293 cells assessed as induction of SEAP production incubated overnight by SEAP reporter gene based assay; format: cell-based

CC(C)Cc1nc2c(N)nc3ccccc3c2s1
pEC50 ([1]; hek-blue htlr8): 5.81 | pEC50 ([2]; hek-blue htlr7): 5.16

CCC[C@H](CCO)Nc1nc(N)nnc1OCc1nccc(OC)c1OC
pEC50 [3]: 6.25 | pEC50 [4]: 6.62

CCCc1nc2c(N)nc3ccc(-n4cc([Si](C)(C)C)nn4)cc3c2s1
pEC50 ([1]; hek-blue htlr8): 5.01

CCCCOc1nc(N)c2[nH]c(=O)n(Cc3ccccc3)c2n1
minimal effective concentration [5]: 0.001 µM

CCCCc1nc2c(N)nc(NCc3cccnc3)cc2n1Cc1ccccc1
pEC50 [2]: 6.60

CCCCNc1nc(N)c2nc(O)n(Cc3ccccc3)c2n1
minimal effective concentration [5]: 0.1 µM

CCCCc1nc2c(NC(=O)CCC)nc3ccccc3c2s1
pEC50 ([1]; hek-blue htlr8): 6.38 | pEC50 ([2]; hek-blue htlr7): 6.31

CCCCc1nc2c(NC=O)nc3ccccc3c2s1
pEC50 ([2]; hek-blue htlr7): 5.60

Nc1nc2ccccc2c2sc(CCCC(F)(F)F)nc12
pEC50 ([1]; hek-blue htlr8): 5.20 | pEC50 ([2]; hek-blue htlr7): 5.65

CCCCSc1nc(N)c2nc(O)n(Cc3ccccc3)c2n1
minimal effective concentration [5]: 0.01 µM

CCCCNc1nc(N)nnc1OCCCN(C)C
pEC50 [3]: 7.00 | pEC50 [4]: < 4.60

CCCCNc1nc(N)nnc1OCCCc1ccccc1
pEC50 [4]: 5.53

CCCCNc1nc(N)nnc1OC
pEC50 [4]: 4.76

CCCCOc1nc(N)c2[nH]c(C#N)c(Cc3ccc(CN4CCCC4)nc3)c2n1
pEC50 [4]: 9.00

CC(C)Oc1cc2ccccc2nc1N
pEC50 [6]: 4.00

CCCCc1nc(N)c2nc(O)n(Cc3ccccc3)c2n1
minimal effective concentration [5]: 0.03 µM

CC[C@H](C)c1nc2c(N)nc3ccccc3c2s1
pEC50 ([1]; hek-blue htlr8): 5.56

CCCc1nc2c(NC=O)nc3ccccc3c2s1
pEC50 [1]: 6.06

CC[C@H](C)Cc1nc2c(N)nc3ccccc3c2s1
pEC50 ([1]; hek-blue htlr8): 5.60 | pEC50 ([2]; hek-blue htlr7): 5.32

CCOC(=O)COc1ccc(CN(CCCn2c(CCOC)nc3c(N)nc4ccccc4c32)C(=O)CN2CCCC2)cc1
pEC50 [7]: 6.83

CCOc1cc2ccccc2nc1N
pEC50 [6]: 4.00

Nc1nc2ccccc2c2sc(CCC(F)(F)F)nc12
pEC50 ([1]; hek-blue htlr8): 5.79 | pEC50 ([2]; hek-blue htlr7): 5.44

COCCc1nc2c(N)nc3ccccc3c2n1CCCCN(CCN(C)C)Cc1cccc(OCC(=O)OC(C)(C)C)c1
pEC50 [7]: 7.25

CCCc1nc2c(NS(C)(=O)=O)nc3ccccc3c2s1
pEC50 ([1]; hek-blue htlr8): 4.98

CCCCOc1nc(N)c2[nH]cc(Cc3ccc(CN4CCCC4)cc3)c2n1
pEC50 [4]: 7.00

CCOC(=O)COc1cccc(CN(CCCn2c(CCOC)nc3c(N)nc4ccccc4c32)C(=O)CN(CC)CC)c1
pEC50 [7]: 7.26

CCCCNc1nc(N)nnc1OCc1ccccc1
pEC50 [3]: 5.71 | pEC50 [4]: 5.53

CCC[C@@H](CCO)Nc1nc(N)nc(C)c1Cc1ccc(CNCCO)cc1OC
pEC50 [8]: < 5.00 | pEC50 [9]: 8.01

CCC[C@@H](CCO)Nc1nc(N)nc(C)c1Cc1ccc(CNC2CNC2)cc1OC
pEC50 [8]: < 5.00 | pEC50 [9]: 7.71

CCCCNc1nc(N)nnc1OCCOC
pEC50 [3]: 6.00 | pEC50 [4]: 5.32

CCC[C@@H](CO)Nc1nc(N)nc(C)c1Cc1ccc(CN2CCNCC2)cc1OC
pEC50 [8]: 5.28 | pEC50 [9]: 7.20

CCCc1nc2c(NC(=O)CCN=[N+]=[N-])nc3ccccc3c2s1
pEC50 ([1]; hek-blue htlr8): 5.65

Cc1nc2c(N)nc3ccccc3c2s1
pEC50 ([2]; hek-blue htlr7): 4.99

CCCC[C@H](CCO)Nc1nc(N)nnc1OC
pEC50 [4]: 5.11

CCOC(=O)COc1ccc(CN(CCCn2c(CCOC)nc3c(N)nc4ccccc4c32)C(=O)CN(C)C)cc1
pEC50 [7]: 6.76

CCCc1nc2c(NC(=O)CN=[N+]=[N-])nc3ccccc3c2s1
pEC50 ([1]; hek-blue htlr8): 5.92 | pEC50 ([2]; hek-blue htlr7): 5.45

CCC[C@@H](CO)Nc1nc(N)nc(C)c1Cc1ccc(CNC2CN(C)C2)cc1OC
pEC50 [8]: 5.21 | pEC50 [9]: 6.81

CCCCNc1nc(N)nnc1OCc1ccccc1F
pEC50 [4]: 6.12

CC(C)c1nc2c(N)nc3ccccc3c2s1
pEC50 ([1]; hek-blue htlr8): 4.96 | pEC50 ([2]; hek-blue htlr7): 5.01

CCCCc1nc2c(N)nc(NCc3ccc(OC)cc3)cc2n1Cc1ccccc1
pEC50 [2]: 7.12

CCCCNc1nc(N)nnc1OCc1ccccn1
pEC50 [4]: 6.77

CCCc1nc2c(N)nc3ccc(N)cc3c2s1
pEC50 ([1]; hek-blue htlr8): 5.41

CCCCc1nc2c(N)nc(NCC3CCCCC3)cc2n1Cc1ccccc1
pEC50 [2]: 6.49

CCCCNc1nc(N)nnc1OC(C)C
pEC50 [4]: 5.08

CCCCCc1nc2c(N)nc3ccccc3c2s1
pEC50 ([1]; hek-blue htlr8): 5.71 | pEC50 ([2]; hek-blue htlr7): 5.38

CCCc1nc2c(N)nc3ccc(N=[N+]=[N-])cc3c2s1
pEC50 ([1]; hek-blue htlr8): 5.69 | pEC50 ([2]; hek-blue htlr7): 4.99

CCCCNc1nc(N)nnc1OCc1cccnc1
pEC50 [4]: 5.77

CCC[C@@H](CCO)Nc1nc(N)nc(C)c1Cc1ccc(CN(C)CC(N)=O)cc1OC
pEC50 [8]: < 5.00 | pEC50 [9]: 7.26

CCc1nc2c(N)nc3ccccc3c2s1
pEC50 ([1]; hek-blue htlr8): 6.09 | pEC50 ([2]; hek-blue htlr7): 5.29

CCCCNc1nc(N)nnc1OCc1ccccc1OC
pEC50 [3]: 6.19

CCC[C@@H](CCO)Nc1nc(N)nc(C)c1Cc1ccc(CNC)cc1OC
pEC50 [8]: 5.19 | pEC50 [9]: 8.52

COc1cc2ccccc2nc1N
pEC50 [6]: 4.00

CCC[C@@H](CCO)Nc1nc(N)nc(C)c1Cc1ccc(CNCC(N)=O)cc1OC
pEC50 [8]: < 5.00 | pEC50 [9]: 7.35

CCC[C@@H](CCO)Nc1nc(N)nc(C)c1Cc1ccc(CNCCC(N)=O)cc1OC
pEC50 [8]: < 5.00 | pEC50 [9]: 7.09

CCC[C@@H](CCO)Nc1nc(N)nc(C)c1Cc1ccc(CNC2CN(C)C2)cc1OC
pEC50 [8]: < 5.00 | pEC50 [9]: 7.72

COCCc1nc2c(N)nc3ccccc3c2n1CCCCN(CCCN1CCOCC1)Cc1cccc(OCC(=O)OC(C)(C)C)c1
pEC50 [7]: 6.94
